Assay results published in US6914045B2, “Glycopeptide antibiotics” (Wyeth Holdings Corporation, priority 2001, dated 2005).

Columns and labels:
Assay in all cases: in vitro antibacterial evaluation, MIC by broth dilution
Assay type in all cases: cell-based
Enterococcus sp. = system: Enterococcus sp.
Method in brief: (§1)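 Inoculum 5×10^5 CFU/mL; concentrations 64 to 0.06 μg/mL; MIC defined as lowest inhibitory level. Conducted by broth dilution under NCCLS guidelines.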

Staphylococcus sp. = settings: broth dilution, 18 hours at 35° C.
Method in brief: as §1

Streptococcus sp. = system: Streptococcus sp.
Method in brief: as §1

Escherichia coli = system: Escherichia coli
Method in brief: as §1

CC(c1ccccc1)C1NC(=O)CNC(=O)C(CO)NC(=O)C(C(O)C2CNC(=N)N2C2OC(CO)C(O)C(O)C2O)NC(=O)C(C(O)C2CNC(=N)N2)NC(=O)C(Cc2ccc(OC3OC(CO)C(OC4OC5COC(c6ccc(-c7cccs7)cc6)OC5C(O)C4O)C(O)C3O)cc2)NC1=O (stereo not drawn) [Example 163]
<0.5 µg/mL: MIC Streptococcus pneumoniae (ATCC 6301) (Streptococcus sp.; broth dilution, inoculum 5×10^5 CFU/mL, 18 hours at 35° C.; strain ATCC 6301) | MIC Streptococcus pneumoniae (GC 1894) (Streptococcus sp.; broth dilution, inoculum 5×10^5 CFU/mL, 18 hours at 35° C.; strain GC 1894) | MIC Streptococcus pyogenes (GC 4563) (Streptococcus sp.; broth dilution, inoculum 5×10^5 CFU/mL, 18 hours at 35° C.; strain GC 4563) | MIC Streptococcus agalactiae (GC 4564) (Streptococcus sp.; broth dilution, inoculum 5×10^5 CFU/mL, 18 hours at 35° C.; strain GC 4564) | MIC Streptococcus pneumoniae (ATCC 6301) (Streptococcus sp.; strain ATCC 6301; broth dilution, 18 hours at 35° C.) | MIC Streptococcus pneumoniae (GC 1894) (Streptococcus sp.; strain GC 1894; broth dilution, 18 hours at 35° C.) | MIC Streptococcus pyogenes (GC 4563) (Streptococcus sp.; strain GC 4563; broth dilution, 18 hours at 35° C.) | MIC Streptococcus agalactiae (GC 4564) (Streptococcus sp.; strain GC 4564; broth dilution, 18 hours at 35° C.)
64 µg/mL: MIC Escherichia coli (GC 4559) (Escherichia coli; strain GC 4559, 18 hours at 35° C.)
8 µg/mL: MIC Enterococcus faecalis (ATCC 29212) (Enterococcus sp.; broth dilution, inoculum 5×10^5 CFU/mL, 18 hours at 35° C.; strain ATCC 29212) | MIC Enterococcus faecium (GC 2243) (Enterococcus sp.; broth dilution, inoculum 5×10^5 CFU/mL, 18 hours at 35° C.; strain GC 2243) | MIC Enterococcus faecalis (GC 3059) (Enterococcus sp.; broth dilution, inoculum 5×10^5 CFU/mL, 18 hours at 35° C.; strain GC 3059) | MIC Enterococcus faecalis (GC 4552) (Enterococcus sp.; broth dilution, inoculum 5×10^5 CFU/mL, 18 hours at 35° C.; strain GC 4552) | MIC Enterococcus faecalis (GC 4554) (Enterococcus sp.; broth dilution, inoculum 5×10^5 CFU/mL, 18 hours at 35° C.; strain GC 4554) | MIC Enterococcus faecium (GC 4557) (Enterococcus sp.; broth dilution, inoculum 5×10^5 CFU/mL, 18 hours at 35° C.; strain GC 4557) | MIC Enterococcus faecalis (ATCC 29212) (Enterococcus sp.; strain ATCC 29212; broth dilution, 18 hours at 35° C.) | MIC Enterococcus faecium (GC 2243) (Enterococcus sp.; strain GC 2243; broth dilution, 18 hours at 35° C.) | MIC Enterococcus faecalis (GC 3059) (Enterococcus sp.; strain GC 3059; broth dilution, 18 hours at 35° C.) | MIC Enterococcus faecalis (GC 4552) (Enterococcus sp.; strain GC 4552; broth dilution, 18 hours at 35° C.) | MIC Enterococcus faecalis (GC 4554) (Enterococcus sp.; strain GC 4554; broth dilution, 18 hours at 35° C.) | MIC Enterococcus faecium (GC 4557) (Enterococcus sp.; strain GC 4557; broth dilution, 18 hours at 35° C.) | MIC Staphylococcus aureus (GC 3051) (Staphylococcus sp.; strain GC 3051) | MIC Staphylococcus aureus (GC 3053) (Staphylococcus sp.; strain GC 3053) | MIC Coagulase Negative Staphylococcus (GC 4547) (Staphylococcus sp.; strain GC 4547) | MIC Escherichia coli (GC 4560) (Escherichia coli; strain GC 4560, 18 hours at 35° C.)
2 µg/mL: MIC Coagulase Negative Staphylococcus (GC 4551) (Staphylococcus sp.; strain GC 4551) | MIC Coagulase Negative Staphylococcus (GC 6257) (Staphylococcus sp.; strain GC 6257)
1 µg/mL: MIC Staphylococcus aureus-SMITH (GC 4543) (Staphylococcus sp.; strain GC 4543) | MIC Coagulase Negative Staphylococcus (GC 4548) (Staphylococcus sp.; strain GC 4548) | MIC Staphylococcus aureus-SMITH (GC 4543) (Staphylococcus sp.; strain SMITH GC 4543) | MIC Streptococcus pneumoniae (GC 4565) (Streptococcus sp.; broth dilution, inoculum 5×10^5 CFU/mL, 18 hours at 35° C.; strain GC 4565) | MIC Streptococcus pneumoniae (GC 4565) (Streptococcus sp.; strain GC 4565; broth dilution, 18 hours at 35° C.)
>64 µg/mL: MIC Escherichia coli (ATCC 25922) (Escherichia coli; strain ATCC 25922, 18 hours at 35° C.)
4 µg/mL: MIC Enterococcus faecalis (GC 2242) (Enterococcus sp.; broth dilution, inoculum 5×10^5 CFU/mL, 18 hours at 35° C.; strain GC 2242) | MIC Enterococcus faecalis (GC 2691) (Enterococcus sp.; broth dilution, inoculum 5×10^5 CFU/mL, 18 hours at 35° C.; strain GC 2691) | MIC Enterococcus faecalis (GC 4553) (Enterococcus sp.; broth dilution, inoculum 5×10^5 CFU/mL, 18 hours at 35° C.; strain GC 4553) | MIC Enterococcus faecium (GC 4556) (Enterococcus sp.; broth dilution, inoculum 5×10^5 CFU/mL, 18 hours at 35° C.; strain GC 4556) | MIC Enterococcus avium (GC 4558) (Enterococcus sp.; broth dilution, inoculum 5×10^5 CFU/mL, 18 hours at 35° C.; strain GC 4558) | MIC Enterococcus faecalis (GC 6189) (Enterococcus sp.; broth dilution, inoculum 5×10^5 CFU/mL, 18 hours at 35° C.; strain GC 6189) | MIC Enterococcus faecalis (GC 2242) (Enterococcus sp.; strain GC 2242; broth dilution, 18 hours at 35° C.) | MIC Enterococcus faecalis (GC 2691) (Enterococcus sp.; strain GC 2691; broth dilution, 18 hours at 35° C.) | MIC Enterococcus faecalis (GC 4553) (Enterococcus sp.; strain GC 4553; broth dilution, 18 hours at 35° C.) | MIC Enterococcus faecium (GC 4556) (Enterococcus sp.; strain GC 4556; broth dilution, 18 hours at 35° C.) | MIC Enterococcus avium (GC 4558) (Enterococcus sp.; strain GC 4558; broth dilution, 18 hours at 35° C.) | MIC Enterococcus faecalis (GC 6189) (Enterococcus sp.; strain GC 6189; broth dilution, 18 hours at 35° C.) | MIC Staphylococcus aureus (GC 1131) (Staphylococcus sp.; inoculum 5×10^5 CFU/mL, strain GC 1131) | MIC Staphylococcus aureus (ATCC 29213) (Staphylococcus sp.; strain ATCC 29213) | MIC Staphylococcus aureus (GC 1131) (Staphylococcus sp.; strain GC 1131) | MIC Staphylococcus aureus (GC 4541) (Staphylococcus sp.; strain GC 4541) | MIC Staphylococcus aureus (GC 4542) (Staphylococcus sp.; strain GC 4542) | MIC Staphylococcus aureus (GC 4544) (Staphylococcus sp.; strain GC 4544) | MIC Staphylococcus aureus (GC 4545) (Staphylococcus sp.; strain GC 4545) | MIC Staphylococcus haemolyticus (GC 4546) (Staphylococcus sp.; strain GC 4546) | MIC Coagulase Negative Staphylococcus (GC 4549) (Staphylococcus sp.; strain GC 4549)

CC(=O)OCC1OC(OC2C(CO)OC(Oc3ccc(CC4NC(=O)C(C(C)c5ccccc5)NC(=O)CNC(=O)C(CO)NC(=O)C(C(O)C5CNC(=N)N5C5OC(CO)C(O)C(O)C5O)NC(=O)C(C(O)C5CNC(=N)N5)NC4=O)cc3)C(O)C2O)C(O)C(OC(=O)CCC(C)C)C1O (stereo not drawn) [Example 270b, Cyclo[glycyl-β-methylphenylalanyl-O-[4-O-[6-O-acetyl-3-O-(4-methylpentanoyl)hexopyranosyl]hexopyranosyl]tyrosyl-3-(2-iminoimidazolidin-4-yl)seryl-3-(3-hexopyranosyl-2-iminoimidazolidin-4-yl)serylseryl]]
>64 µg/mL: MIC Escherichia coli (ATCC 25922) (Escherichia coli; Escherichia coli (ATCC 25922), 18 hours at 35° C.) | MIC Escherichia coli (GC 4559) (Escherichia coli; Escherichia coli (GC 4559), 18 hours at 35° C.)
16 µg/mL: MIC Enterococcus faecalis (GC 2242) (Enterococcus sp.; broth dilution, 18 hours at 35° C.; strain GC 2242)
8 µg/mL: MIC Enterococcus faecium (GC 4557) (Enterococcus sp.; Enterococcus faecium (GC 4557); broth dilution, 18 hours at 35° C.) | MIC Enterococcus faecium (GC 4557) (Enterococcus sp.; broth dilution, 18 hours at 35° C.; strain GC 4557) | MIC Staphylococcus aureus (ATCC 29213) (Staphylococcus sp.) | MIC Staphylococcus aureus (GC 1131) (Staphylococcus sp.) | MIC Staphylococcus aureus (GC 4541) (Staphylococcus sp.) | MIC Staphylococcus aureus (GC 4542) (Staphylococcus sp.) | MIC Staphylococcus aureus (GC 4544) (Staphylococcus sp.) | MIC Staphylococcus aureus (ATCC 29213) (Staphylococcus sp.; strain ATCC 29213) | MIC Staphylococcus aureus (GC 1131) (Staphylococcus sp.; strain GC 1131) | MIC Staphylococcus aureus (GC 4541) (Staphylococcus sp.; strain GC 4541) | MIC Staphylococcus aureus (GC 4542) (Staphylococcus sp.; strain GC 4542) | MIC Staphylococcus aureus (GC 4544) (Staphylococcus sp.; strain GC 4544)
2 µg/mL: MIC Streptococcus agalactiae (GC 4564) (Streptococcus sp.; broth dilution, 18 hours at 35° C.; strain GC 4564) | MIC Streptococcus pyogenes (ID-3187) (Streptococcus sp.; broth dilution, 18 hours at 35° C.; strain ID-3187)
32 µg/mL: MIC Enterococcus avium (GC 4558) (Enterococcus sp.; Enterococcus avium (GC 4558); broth dilution, 18 hours at 35° C.) | MIC Enterococcus faecalis (ATCC 29212) (Enterococcus sp.; Enterococcus faecalis (ATCC 29212); broth dilution, 18 hours at 35° C.) | MIC Enterococcus faecalis (GC 4553) (Enterococcus sp.; Enterococcus faecalis (GC 4553); broth dilution, 18 hours at 35° C.) | MIC Enterococcus faecalis (GC 4554) (Enterococcus sp.; Enterococcus faecalis (GC 4554); broth dilution, 18 hours at 35° C.) | MIC Enterococcus faecium (GC 2243) (Enterococcus sp.; Enterococcus faecium (GC 2243); broth dilution, 18 hours at 35° C.) | MIC Enterococcus faecium (GC 4556) (Enterococcus sp.; Enterococcus faecium (GC 4556); broth dilution, 18 hours at 35° C.) | MIC Enterococcus faecalis (ATCC 29212) (Enterococcus sp.; broth dilution, 18 hours at 35° C.; strain ATCC 29212) | MIC Enterococcus faecium (GC 2243) (Enterococcus sp.; broth dilution, 18 hours at 35° C.; strain GC 2243) | MIC Enterococcus faecalis (GC 4552) (Enterococcus sp.; broth dilution, 18 hours at 35° C.; strain GC 4552) | MIC Enterococcus faecalis (GC 4553) (Enterococcus sp.; broth dilution, 18 hours at 35° C.; strain GC 4553) | MIC Enterococcus faecalis (GC 4554) (Enterococcus sp.; broth dilution, 18 hours at 35° C.; strain GC 4554) | MIC Enterococcus faecium (GC 4556) (Enterococcus sp.; broth dilution, 18 hours at 35° C.; strain GC 4556) | MIC Enterococcus avium (GC 4558) (Enterococcus sp.; broth dilution, 18 hours at 35° C.; strain GC 4558)
4 µg/mL: MIC Coagulase Negative Staphylococcus (GC 4547) (Staphylococcus sp.) | MIC Coagulase Negative Staphylococcus (GC 4548) (Staphylococcus sp.) | MIC Coagulase Negative Staphylococcus (GC 4549) (Staphylococcus sp.) | MIC Coagulase Negative Staphylococcus (GC 4551) (Staphylococcus sp.) | MIC Staphylococcus aureus (GC 4545) (Staphylococcus sp.) | MIC Staphylococcus aureus-SMITH (GC 4543) (Staphylococcus sp.) | MIC Staphylococcus haemolyticus (GC 4546) (Staphylococcus sp.) | MIC Staphylococcus aureus (GC 4545) (Staphylococcus sp.; strain GC 4545) | MIC Staphylococcus haemolyticus (GC 4546) (Staphylococcus sp.; strain GC 4546) | MIC Coagulase Negative Staphylococcus (GC 4547) (Staphylococcus sp.; strain GC 4547) | MIC Coagulase Negative Staphylococcus (GC 4548) (Staphylococcus sp.; strain GC 4548) | MIC Coagulase Negative Staphylococcus (GC 4549) (Staphylococcus sp.; strain GC 4549) | MIC Coagulase Negative Staphylococcus (GC 4551) (Staphylococcus sp.; strain GC 4551) | MIC Staphylococcus aureus-SMITH (GC 4543) (Staphylococcus sp.; strain SMITH GC 4543) | MIC Escherichia coli (GC 4560) (Escherichia coli; Escherichia coli (GC 4560), 18 hours at 35° C.)
